Experimental data from patent publication US8846719B2, “Isoxazolo-pyridine derivatives” (Roche Palo Alto LLC, priority 2007, dated 2014).
pKi: −log10 of the molar value.

Target: human GABA A receptor α5β3γ2 (Homo sapiens (Human), UniProt P18507+P31644)
Assay: [3H]flumazenil competition binding assay, human GABA A α5β3γ2 receptors expressed in HEK293 cells
Conditions: human receptor; displacement of [3H]flumazenil (0.5 nM); means of two determinations; read-out: hKi GABAAa5
Procedure, shortened: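 Competition for [3H]flumazenil binding on membranes of HEK293 cells transiently transfected with human α5β3γ2 receptors, in Krebs-tris buffer pH 7.5.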

SMILES	pKi
Cc1onc(-c2ccc(Cl)cc2)c1COc1ccc(C(=O)N[C@@H]2CCC[C@H]2O)cn1 (single isomer, unassigned) [Example 259, 6-[3-(4-Chloro-phenyl)-5-methyl-isoxazol-4-ylmethoxy]-N-((1R,2R)-2-hydroxy-cyclopentyl)-nicotinamide or 6-[3-(4-chloro-phenyl)-5-methyl-isoxazol-4-ylmethoxy]-N-((1S,2S)-2-hydroxy-cyclopentyl)-nicotinamide]	9.15
COC(=O)c1ccc(NCc2c(-c3ccccc3)noc2C)nc1 [Example 161, 6-[(5-Methyl-3-phenyl-isoxazol-4-ylmethyl)-amino]-nicotinic acid methyl ester]	7.56
CC[C@@H](CO)NC(=O)c1ccc(OCc2c(-c3ccccc3)noc2C)nc1 [Example 208, N—((S)-1-Hydroxymethyl-propyl)-6-(5-methyl-3-phenyl-isoxazol-4-ylmethoxy)-nicotinamide]	9.15
Cc1onc(-c2ccccc2)c1COc1ccc(C(=O)NCCC(C)O)cn1 (stereo not shown) [Example 215, N-(3-Hydroxy-butyl)-6-(5-methyl-3-phenyl-isoxazol-4-ylmethoxy)-nicotinamide]	8.64
Cc1onc(-c2ccccc2)c1COc1ccc(C(=O)N2CCC(F)(F)CC2)cn1 [Example 52, (4,4-Difluoro-piperidin-1-yl)-[6-(5-methyl-3-phenyl-isoxazol-4-ylmethoxy)-pyridin-3-yl]-methanone]	7.77
Cc1onc(-c2ccccc2)c1COc1ccc(C(=O)NC2CCN(Cc3ccccc3)CC2)cn1 [Example 37, N-(1-Benzyl-piperidin-4-yl)-6-(5-methyl-3-phenyl-isoxazol-4-ylmethoxy)-nicotinamide]	8.14
O=C(NC1CCOCC1)c1ccc(OCc2c(-c3ccccc3)noc2C(F)(F)F)nc1 [Example 135, 6-(3-Phenyl-5-trifluoromethyl-isoxazol-4-ylmethoxy)-N-(tetrahydro-pyran-4-yl)-nicotinamide]	7.66
O=C(NCC(F)(F)F)c1ccc(OCc2conc2-c2ccc(F)cn2)nc1 [Example 369, 6-[3-(5-Fluoro-pyridin-2-yl)-isoxazol-4-ylmethoxy]-(2,2,2-trifluoro-ethyl)-nicotinamide]	8.03
COC(=O)c1ccc(NCc2c(-c3ccc(F)cc3)noc2C)nc1 [Example 172, 6-{[3-(4-Fluoro-phenyl)-5-methyl-isoxazol-4-ylmethyl]-amino}-nicotinic acid methyl ester]	7.59
Cc1onc(-c2ccccc2)c1COc1ncc(C(=O)NC2CCOCC2)cc1Br [Example 65, 5-Bromo-6-(5-methyl-3-phenyl-isoxazol-4-ylmethoxy)-N-(tetrahydro-pyran-4-yl)-nicotinamide]	7.61
C[C@@H](CO)NC(=O)c1ccc(OCc2conc2-c2ccc(Cl)cc2)nc1 [Example 355, 6-[3-(4-Chloro-phenyl)-isoxazol-4-ylmethoxy]-N—((S)-2-hydroxy-1-methyl-ethyl)-nicotinamide]	8.37
Cc1onc(-c2ccncc2)c1COc1ccc(C(=O)NCC(F)(F)F)cn1 [Example 146, 6-(5-Methyl-3-pyridin-4-yl-isoxazol-4-ylmethoxy)-N-(2,2,2-trifluoro-ethyl)-nicotinamide]	8.23
CNC(=O)c1ccc(OCc2c(-c3ccccc3)noc2C)nc1 [Example 8, N-Methyl-6-(5-methyl-3-phenyl-isoxazol-4-ylmethoxy)-nicotinamide]	8.37
